Assays:
Assay in all cases: Post-emergence efficacy
Assay type in all cases: in vivo
[1] = test system: Amaranthus retroflexus (AMARE); conditions: 100=total damage to plant, 0=no damage
Source text: (§1) When active ingredients are combined, the activity to be expected (E) for any given active ingredient combination obeys the so-called Colby Formula and can be calculated as follows (Colby, S. R., Calculating synergistic and antagonistic responses of herbicide combination, Weeds, Vol. 15, pages 20-22; 1967): • ppm=milligrams of active ingredient (a.i.) per litre • X=% action by first active ingredient using p ppm of the active ingredient • Y=% action by second active ingredient sing q ppm of the active ingredient.
(§2) According to Colby, the expected action of active ingredients A+B using p+q ppm of active ingredient is represented by the following formula: […]
(§3) If the action actually observed (O) is greater than the expected action E then the action of the combination is super-additive, i.e. there is a synergistic effect. In mathematical terms, synergism corresponds to a positive value for the difference of (O−E). In the case of purely complementary addition of activities (expected activity), said difference (O−E) is zero. A negative value of said difference (O−E) signals a loss of activity compared to the expected activity.
(§4) The efficacy of various compositions of the present invention were tested against plants including the following species: Amaranthus retroflexus (AMARE), Echinochloa crus-gali (ECHCG), Lolium multiflorum (LOLMU), Setaria faberi (SETFA), and Digitaria insularis (TRCIN). The compositions are applied post-emergence, and the tests evaluated at certain days-after-application (DAA) as indicated. The tests were evaluated (100=total damage to plant; 0=no damage to plant), and the results are shown below in tables B1 to B11 below.

[2] = test system: Echinochloa crus-gali (ECHCG); conditions: 100=total damage to plant, 0=no damage
Source text: as §1, §2, §3, §4

[3] = test system: Lolium multiflorum (LOLMU); conditions: Table B11, 15DAA, 100=total damage to plant, 0=no damage
Source text: as §1, §2, §3, §4

[4] = test system: Setaria faberi (SETFA); conditions: Table B8, 13 DAA, 100=total damage to plant, 0=no damage
Source text: as §1, §2, §3, §4

[5] = test system: Digitaria insularis (TRCIN); conditions: 100=total damage to plant, 0=no damage
Source text: as §1, §2, §3, §4

## CCOC(=O)c1ccccc1S(=O)(=O)NC(=O)Nc1nc(Cl)cc(OC)n1 [Formula B3c, chlorimuron-ethyl]
[1]; Table B6, 13DAA, 1.88 g/ha
  Observed: 88
[1]; Table B6, 13DAA, 7.5 g/ha
  Observed: 83

## CSc1nnc(C(C)(C)C)c(=O)n1N [Formula B4g, metribuzin]
[1]; Table B10, 13 DAA, 7.5 g/ha
  Observed: 0

## CCNc1nc(Cl)nc(NC(C)C)n1 [Formula B4c, atrazine]
[2]; Table B9, 20DAA, 500 g/ha
  Observed: 60

## FC(F)c1cc(-c2c(Cl)cccc2Oc2ncc(Cl)cn2)on1 [Formula B5d, rimisoxafen]
[3]; 30 g/ha
  Observed: 18

## bicyclopyrone [Formula B1b]
[1]; Table B1, 13 DAA, 0.94 g/ha
  Observed: 23
[1]; Table B1, 13 DAA, 1.88 g/ha
  Observed: 45

## COc1cc(OC)nc(NC(=O)NS(=O)(=O)c2ncccc2C(=O)N(C)C)n1 [Formula B3m, nicosulfuron]
[4]; 0.94 g/ha
  Observed: 0
[4]; 1.88 g/ha
  Observed: 0
[4]; 3.75 g/ha
  Observed: 0

## CCOCN(C(=O)CCl)c1c(C)cccc1CC [Formula B2a, acetochlor]
[2]; Table B4, 15DAA, 4000 g/ha
  Observed: 50

## CS(=O)(=O)c1ccc(C(=O)C2C(=O)CCCC2=O)c([N+](=O)[O-])c1 [Formula B1f, mesotrione]
[1]; Table B3, 13 DAA, 3.75 g/ha
  Observed: 18

## CC#Cc1ccc(C2=C(OC(=O)OC)C3CCC(C3)C2=O)c(OC)c1 (stereo not shown) [Formula Ic]
[5]; Table B7, 16DAA, 3.125 g/ha
  Observed: 15
[3]; 12.5 g/ha
  Observed: 60
[4]; 0.47 g/ha
  Observed: 3
[4]; 0.94 g/ha
  Observed: 0
[4]; 1.88 g/ha
  Observed: 0
[1]; Table B1, 13 DAA, 0.47 g/ha
  Observed: 0
[1]; Table B1, 13 DAA, 0.94 g/ha
  Observed: 0
[1]; Table B3, 13 DAA, 0.47 g/ha
  Observed: 10
[1]; Table B3, 13 DAA, 0.94 g/ha
  Observed: 0
[1]; Table B6, 13DAA, 1.88 g/ha
  Observed: 7.5
[1]; Table B10, 13 DAA, 0.47 g/ha
  Observed: 10
[1]; Table B10, 13 DAA, 0.94 g/ha
  Observed: 0
[1]; Table B10, 13 DAA, 1.88 g/ha
  Observed: 0

## Cn1nc(C(F)(F)F)c(CS(=O)(=O)C2=NOC(C)(C)C2)c1OC(F)F [Formula B2d, pyroxasulfone]
[2]; Table B5, 15DAA, 125 g/ha
  Observed: 38
[2]; Table B5, 15DAA, 250 g/ha
  Observed: 35

## CCc1cnc(C2=NC(C)(C(C)C)C(=O)N2)c(C(=O)O)c1 (stereo not shown) [Formula B3j, imazethapyr]
[5]; Table B7, 16DAA, 8 g/ha
  Observed: 30
[5]; Table B7, 16DAA, 15 g/ha
  Observed: 53

## COc1ccc(-n2c(=O)c(C(=O)C3C(=O)CCCC3=O)nc3c(Cl)cccc32)cc1 [Formula B1d, fenquinotrione]
[5]; Table B2, 16DAA, 500 g/ha
  Observed: 35
[5]; Table B2, 16DAA, 1000 g/ha
  Observed: 43
